The structures appear in SMILES notation. Numbered stars: 1 amine (or outer) side, 2 acyl side, 3 side chain; on linkers, the order of the positions; unused ones are H or OH. Square brackets hold non-standard residues; d marks the D form. Peptide text beside a SMILES is read from it. NMeF = CN[C@@H](Cc1ccccc1)C(=O)O; Suc = O=C(CCC(=O)[*:2])[*:1]

The target of one assay is T1, NK3-receptor (Homo sapiens, UniProt P29371).
T1 construct: active in a double blind placebo controlled clinical trial in schizophrenia patients; host or cells: schizophrenia patients (Meltzer et al., Am J Psych 161:975-84, 2004)
T1 sequence (P29371 1-465): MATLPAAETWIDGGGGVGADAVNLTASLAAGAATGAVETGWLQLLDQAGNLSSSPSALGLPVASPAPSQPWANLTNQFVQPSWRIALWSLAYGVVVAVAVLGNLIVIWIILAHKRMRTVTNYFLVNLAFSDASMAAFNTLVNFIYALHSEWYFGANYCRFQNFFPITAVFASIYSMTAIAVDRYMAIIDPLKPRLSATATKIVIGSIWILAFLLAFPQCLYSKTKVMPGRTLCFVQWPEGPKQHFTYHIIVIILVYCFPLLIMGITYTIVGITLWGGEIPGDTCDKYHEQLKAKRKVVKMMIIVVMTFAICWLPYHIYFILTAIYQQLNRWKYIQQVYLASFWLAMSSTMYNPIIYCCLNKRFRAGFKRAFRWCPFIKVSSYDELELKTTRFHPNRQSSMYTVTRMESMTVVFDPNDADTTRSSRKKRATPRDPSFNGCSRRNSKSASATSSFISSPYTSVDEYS
To be noted: double blind placebo controlled; Meltzer et al. 2004; cited from earlier work.

The subject of a further assay is NK3 receptor. Description: Senktide-induced locomotor activity in gerbils (total distance traveled). It counts as in vivo, Mongolian gerbil. The following applies: senktide 0.01, 0.03 or 0.1 nM/5 μL ICV tested, effect at 0.1 nM/5 μL, activity measured for 90 minutes, FIG. 1.

Protocol for NK3 receptor: Male and female Mongolian gerbils [Biological Research Laboratories, 4414 Füllinsdorf, Switzerland] weighing between 40-70 g were used. Gerbils were housed four per cage for approximately four to seven days following arrival in the laboratory colony. The gerbils had ad libitum access to tap water and lab chow in the home cage. The animal quarters were maintained on a 12:12 hour light-dark cycle with light onset at 6 a.m. and with both temperature (21-23° C.) and humidity (55-65%) regulated. All testing was conducted during the light phase of the light-dark cycle. All procedures described here received prior approval from the City of Basel Cantonal Animal Protection Committee based on adherence to federal and local regulations. The experiments were carried out in an animal colony supervised by the veterinary staff of Hoffmann-La Roche Ltd.
The antagonists were prepared immediately prior to use (vehicle 0.3% Tween-80/saline). […]
The incision was closed using a clip suture and gerbils were placed into perspex boxes on recovery of their righting reflex and then placed into locomotor activity boxes (Accuscan instruments, USA). Activity was then measured automatically for a period of 90 minutes.
Data were analysed using a One way anova followed by Dunnet multiple comparison test or t-test (one-tailed) where appropriate (Statistica, Statsoft).

`CC(=O)N(C)C1(c2ccccc2)CCN(CCC[C@]2(c3ccc(Cl)c(Cl)c3)CCCN(C(=O)c3ccccc3)C2)CC1` [SR142801]: the “activity in clinical trial in schizophrenia patients” value at NK3-receptor is “active”.

For `CSCC[C@H](NC(=O)[C@H](CC(C)C)NC(=O)CNC(=O)[C@H](Cc1ccccc1)N(C)C(=O)[C@H](Cc1ccccc1)NC(=O)[C@H](CC(=O)O)NC(=O)CCC(=O)O)C(N)=O` [Senktide, N-(3-carboxy-1-oxopropyl)-L-α-aspartyl-L-phenylalanyl-N-methyl-L-phenylalanylglycyl-L-leucyl-L-methioninamide] (Suc-DF[NMeF]GLM-NH2), the “total distance traveled (locomotor activity)” value with NK3 receptor is “significant increase”.

(Values after patent publication US20070048225A1, “NK3 receptor in vivo assay” (priority 2005, published 2007).)
